According to article PMC10743086, “Immunofluorescence-Based Assay for High-Throughput Analysis of Multidrug Resistance Markers in Non-Small Cell Lung Carcinoma Patient-Derived Cells” (Diagnostics, 2023):

Legend:
Assay type in all cases: cell-based, human
NCI-H460/R cells = experiment: Cytotoxicity by immunofluorescence cell scoring (cell counts), multidrug-resistant NSCLC cell line; details: Homo sapiens, 24 h treatment
From the text: Human non-small cell lung carcinoma cells (NCI-H460) were purchased from the American Type Culture Collection (Rockville, MD, USA), and normal embryonic lung fibroblasts (MRC-5) were purchased from the European Collection of Authenticated Cell Cultures (Salisbury, UK). Multidrug-resistant NCI-H460/R cells overexpressing ABCB1 were selected from the NCI-H460 cells after selective pressure with doxorubicin [21]. All the cell lines were maintained in MEM medium (Sigma-Aldrich Chemie GmbH, Taufkirchen, Germany) supplemented with 10% FBS, 2 mM L-glutamine, and antibiotic-antimycotic solution. All the cell lines were maintained at 37 °C in a humidified atmosphere with 5% CO2.
(§1) Vinorelbine and pemetrexed were purchased from Selleckchem (Houston, TX, USA). Carboplatin, cisplatin, docetaxel, etoposide, gemcitabine, gefitinib, and paclitaxel were purchased from Sigma-Aldrich Chemie GmbH (Taufkirchen, Germany). The cisplatin, carboplatin, and gemcitabine were dissolved in sterile water, while the etoposide, docetaxel, vinorelbine, paclitaxel, gefitinib, and pemetrexed were dissolved in DMSO and stored at −20 °C. Before treatment, all the stock solutions were freshly diluted in sterile water.
(§2) The compounds were administered 48 h after seeding. The treatment lasted 24 h.
(§3) The immunofluorescence assay for the quantification of MDR markers was optimized to distinguish cancer cells from stromal cells using a cytokeratin 8/18 (CK8/18) antibody cocktail. The cells were fixed with 4% paraformaldehyde for 20 min at RT and washed three times with PBS using the Wellwash Versa microplate washer (Thermo Fisher Scientific, Waltham, MA, USA). The cells were then blocked with 2% bovine serum albumin (BSA) in PBS for 1 h at RT. […] Co-immunostaining with antibodies against MDR markers was performed to detect the presence of ABCB1, ABCC1, and ABCG2 in both the cancer and stromal cells. […] The secondary antibodies were incubated with the cells at RT for 2 h in the dark. […] Finally, the cells were washed three times with PBS and stored at 4 °C in the dark before imaging.
(§4) The fluorescently labeled cells were imaged using the ImageXpress Pico Automated Cell Imaging System (Molecular Devices, San Jose, CA, USA) with a 4x objective after determining the appropriate exposure time for each illumination filter. Analysis of the obtained images was performed using CellReporterXpress software v. 2.8.2.669 (Molecular Devices). The cytotoxicity of the compounds was determined using the Cell Scoring Analysis Protocol. […] Expression of MDR markers was determined using the Multi-Wavelength Cell Scoring Analysis Protocol.

[1] = system: ABCB1 expression in NCI-H460/R cells; experiment: Immunofluorescence assay of MDR marker ABCB1 expression; details: five concentrations, 24 h
Protocol: as §1, §2, §3, §4

[2] = system: ABCB1 expression in NCI-H460 cells; experiment: as above; details: five concentrations, 24 h
Protocol: as §1, §2, §3, §4

[3] = system: ABCB1 expression in MRC-5 cells; experiment: as above; details: five concentrations, 24 h
Protocol: as §1, §2, §3, §4

MRC-5 cells = experiment: Cytotoxicity by immunofluorescence cell scoring (cell counts), normal fibroblasts; details: Homo sapiens, 24 h treatment
Protocol: as §1, §2, §3, §4

NCI-H460 cells = experiment: Cytotoxicity by immunofluorescence cell scoring (cell counts), NSCLC cell line; details: Homo sapiens, NCI-H460, 24 h, 24 h treatment
Protocol: as §1, §2, §3, §4

[4] = system: ABCC1 expression in cancer cells (CK8/18+); experiment: Immunofluorescence assay of ABCC1 expression in patient-derived NSCLC cultures; details: 7 days
Protocol: (§5) Tissue samples were collected during surgery, and the NSCLC diagnosis, histological grade, stage, necrosis, and lymph node invasion status were determined by histopathological analysis. […] The surgical specimens were placed in a sterile tube containing antibiotic-antimycotic solution (Sigma-Aldrich Chemie GmbH, Taufkirchen, Germany) and immediately transported to the research laboratory for further processing.
(§6) Upon arrival, the tissue was manually chopped with a surgical blade in a Petri dish under sterile conditions. The samples were cut into 3–5 mm pieces and further dissociated using the Tumor Dissociation Kit (Miltenyi Biotec, Bergisch Gladbach, Germany). The Tumor Dissociation Kit was used to dissociate the cells from the tumor tissue according to the manufacturer’s instructions. The samples were incubated in a 37 °C orbital shaker (KS 4000 ic control, IKA, Königswinter, Germany) at 300 rpm for 90 min. After incubation, the dissociated tissue was placed in DMEM/Ham’s F12 (1:3 ratio) growth medium supplemented with 5% fetal bovine serum (Corning, NY, USA), antibiotic-antimycotic solution, 4 µg/mL hydrocortisone (Sigma-Aldrich Chemie GmbH, Taufkirchen, Germany), 1 µg/mL insulin (Sigma-Aldrich Chemie GmbH, Taufkirchen, Germany), 10 ng/mL epidermal growth factor (BioLegend, San Diego, CA, USA), and 24 µg/mL adenine (Sigma-Aldrich Chemie GmbH, Taufkirchen, Germany). The DMEM and Ham’s F12 growth media were purchased from Sigma-Aldrich Chemie GmbH (Taufkirchen, Germany).
(§7) The dissociated tissue was cultured in T-25 cell culture flasks until cell attachment was observed before the medium was replaced. If no cell attachment was achieved within 7 days, the sample was discarded. Successful patient-derived cultures were maintained at 37 °C in a humidified atmosphere with 5% CO2 and grown to confluence before undergoing further experiments. […] Partial trypsinization was performed by detaching the fibroblast-like cells with 1 mL of 0.05% trypsin for 1 min at 37 °C, followed by 2 min at room temperature (RT).
as §1
(§8) The primary cells were seeded in black, clear bottom 384-well cell culture microplates (Thermo Fisher Scientific, Waltham, MA, USA) in 50 µL of cell growth medium at a density of 1000 cells per well. The compounds were administered 72 h after seeding. The treatment lasted 7 days.
as §3

[5] = system: Non-cancer cells (CK8/18-) of patient-derived NSCLC cultures; experiment: Cytotoxicity in patient-derived NSCLC cultures, non-cancer cells; details: Homo sapiens, 168 h, 7 days treatment
Protocol: as §5, §6, §7, §1, §8, §3

[6] = NCI-H460/R (co-culture with MRC-5)
[7] = NCI-H460 (co-culture with MRC-5)
[8] = MRC-5 (co-culture with NCI-H460)
[9] = MRC-5 (co-culture with NCI-H460/R)
[10] = MRC5, 24 h, MRC-5 (co-culture with NCI-H460)
[11] = MRC5, 24 h, MRC-5 (co-culture with NCI-H460/R)
[12] = culture TR58, cancer cells (CK8/18+)
[13] = culture TR64, cancer cells (CK8/18+)
[14] = culture TR65, cancer cells (CK8/18+)
[15] = culture TR84, cancer cells (CK8/18+)
[16] = culture TR87, cancer cells (CK8/18+)
[17] = culture TR58, non-cancer cells (CK8/18-)
[18] = culture TR64, non-cancer cells (CK8/18-)
[19] = culture TR65, non-cancer cells (CK8/18-)
[20] = culture TR84, non-cancer cells (CK8/18-)
[21] = culture TR87, non-cancer cells (CK8/18-)

Structure (SMILES) | IC50 (NCI-H460/R cells; [6]) | IC50 (NCI-H460/R cells; NCI-H460/R monoculture) | ABCB1 Expression [1, 6] | ABCB1 Expression ([1]; NCI-H460/R monoculture) | ABCB1 Expression [2, 7] | ABCB1 Expression ([2]; NCI-H460 monoculture) | ABCB1 Expression [3, 8] | ABCB1 Expression [3, 9] | ABCB1 Expression ([3]; MRC-5 monoculture) | IC50 (MRC-5 cells; [10]) | IC50 (MRC-5 cells; MRC5, 24 h, MRC-5 monoculture) | IC50 (NCI-H460 cells; [7]) | IC50 (NCI-H460 cells; NCI-H460 monoculture) | ABCC1 expression [4, 12] | ABCC1 expression [4, 13] | ABCC1 expression [4, 14] | ABCC1 expression [4, 15] | ABCC1 expression [4, 16] | IC50 [5, 17] | IC50 [5, 18] | further results
Nc1ccn([C@@H]2O[C@H](CO)[C@@H](O)C2(F)F)c(=O)n1 [Gemcitabine, gemcitabine] | 29.4 µM | 33.6 µM | no change | no change | no change | no change | no change | no change | no change | > 100 µM | > 100 µM | 34.6 µM | 41.6 µM | no change | increase (An increase in ABCB1, ABCC1, or ABCG2 expression of at least 20% at a minimum of one concentration is shown in the table.) | increase (An increase in ABCB1, ABCC1, or ABCG2 expression of at least 20% at a minimum of one concentration is shown in the table.) | increase (An increase in ABCB1, ABCC1, or ABCG2 expression of at least 20% at a minimum of one concentration is shown in the table.) | increase (An increase in ABCB1, ABCC1, or ABCG2 expression of at least 20% at a minimum of one concentration is shown in the table.) | 3.07 µM | 7.06 µM | IC50 (MRC-5 cells; [11]): > 100 µM; IC50 [5, 19]: 0.351 µM; IC50 [5, 20]: 0.491 µM; IC50 [5, 21]: 1.13 µM
CC(=O)O[C@H]1C(=O)[C@@]2(C)[C@H]([C@H](OC(=O)c3ccccc3)[C@]3(O)C[C@H](OC(=O)[C@H](O)[C@@H](NC(=O)c4ccccc4)c4ccccc4)C(C)=C1C3(C)C)[C@]1(OC(C)=O)CO[C@@H]1C[C@@H]2O [Paclitaxel, paclitaxel] | > 5 µM | > 5 µM | no change | no change | increase (An increase in ABCB1 expression of at least 20% at a minimum of one concentration is shown in the table.) | increase (An increase in ABCB1 expression of at least 20% at a minimum of one concentration is shown in the table.) | no change | no change | no change | > 5 µM | > 5 µM | 0.339 µM | 0.381 µM | no change | increase (An increase in ABCB1, ABCC1, or ABCG2 expression of at least 20% at a minimum of one concentration is shown in the table.) | increase (An increase in ABCB1, ABCC1, or ABCG2 expression of at least 20% at a minimum of one concentration is shown in the table.) | increase (An increase in ABCB1, ABCC1, or ABCG2 expression of at least 20% at a minimum of one concentration is shown in the table.) | increase (An increase in ABCB1, ABCC1, or ABCG2 expression of at least 20% at a minimum of one concentration is shown in the table.) | 1.4 µM | 1.95 µM | IC50 (MRC-5 cells; [11]): > 5 µM; IC50 [5, 19]: 1.4 µM; IC50 [5, 20]: 0.312 µM; IC50 [5, 21]: 1.87 µM
Nc1nc2[nH]cc(CCc3ccc(C(=O)N[C@@H](CCC(=O)O)C(=O)O)cc3)c2c(=O)[nH]1 [Pemetrexed, pemetrexed] | > 300 µM | > 300 µM | no change | no change | no change | no change | no change | no change | no change | > 300 µM | > 300 µM | > 300 µM | > 300 µM | no change | no change | increase (An increase in ABCB1, ABCC1, or ABCG2 expression of at least 20% at a minimum of one concentration is shown in the table.) | increase (An increase in ABCB1, ABCC1, or ABCG2 expression of at least 20% at a minimum of one concentration is shown in the table.) | increase (An increase in ABCB1, ABCC1, or ABCG2 expression of at least 20% at a minimum of one concentration is shown in the table.) | > 300 µM | > 300 µM | IC50 (MRC-5 cells; MRC5, MRC-5 (co-culture with NCI-H460/R)): > 300 µM; IC50 [5, 19]: 25.2 µM; IC50 [5, 20]: > 300 µM; IC50 [5, 21]: > 300 µM
